Assay results reported in ChEMBL document CHEMBL5360672, “Identification of Novel Dual-Target Estrogen Receptor α Degraders with Tubulin Inhibitory Activity for the Treatment of Endocrine-Resistant Breast Cancer” (J Med Chem, 2023).
Active and inactive are the calls of the source. The calls are words filed in the database; no cut-off is given here.

Assays:
Tubulin (Homo sapiens) [1] = target: T1, Tubulin (Homo sapiens) (UniProt P68371+Q9H4B7+P0DPH7+P68366+Q13509+Q71U36+P04350+Q3ZCM7+P07437+P68363+Q9BQE3+Q6PEY2+Q13885+Q9BVA1+Q9BUF5); assay: Disruption of microtubule network in human LCC2 cells assessed as chaotic microtubule network at 4 uM incubated for 48 hrs by DAPI staining based confocal laser scanning microscopic analysis; format: cell-based
[2] = Toxicity in Balb/c nude mouse xenografted with human MCF7 cells assessed as effect on kidney morphology at 2 to 4 mg/kg, ip administered every other day for 20 days by H&E staining based analysis; format: organism-based; conditions: in vivo, 480 h, dose 2-4 mg/kg, time 20 day
[3] = target: T2, Estrogen receptor (Homo sapiens) (UniProt P03372); assay: Induction of ERalpha degradation in human MCF7 cells incubated for 6 to 24 hrs by Western blot analysis; format: cell-based; conditions: dose 0.5-5 µM, time 6-24 hrs
T2 sequence (whole entry): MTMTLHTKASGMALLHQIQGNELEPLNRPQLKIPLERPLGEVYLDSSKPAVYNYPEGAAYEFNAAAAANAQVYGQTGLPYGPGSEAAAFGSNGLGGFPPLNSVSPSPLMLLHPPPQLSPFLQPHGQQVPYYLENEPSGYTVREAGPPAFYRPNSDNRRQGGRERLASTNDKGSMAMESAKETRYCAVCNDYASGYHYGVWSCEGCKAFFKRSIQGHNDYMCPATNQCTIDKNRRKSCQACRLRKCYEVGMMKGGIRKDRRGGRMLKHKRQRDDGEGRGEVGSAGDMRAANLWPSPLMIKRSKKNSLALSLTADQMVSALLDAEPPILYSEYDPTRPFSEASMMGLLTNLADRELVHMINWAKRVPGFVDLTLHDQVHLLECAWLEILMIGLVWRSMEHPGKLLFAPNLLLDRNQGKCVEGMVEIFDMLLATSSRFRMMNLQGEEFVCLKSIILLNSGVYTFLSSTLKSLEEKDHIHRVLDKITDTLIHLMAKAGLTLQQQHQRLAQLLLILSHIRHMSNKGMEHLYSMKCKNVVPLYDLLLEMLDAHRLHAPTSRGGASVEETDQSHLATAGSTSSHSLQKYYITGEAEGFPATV

MCF7 [4] = assay: Antitumor activity against human MCF7 cells xenografted in Balb/c nude mouse assessed as reduction in Ki67 positive cells at 2 to 4 mg/kg, ip administered every other day for 20 days by immunohistochemistry analysis; format: functional, organism-based; conditions: dose 2-4 mg/kg, time 20.0 day
Tubulin (Homo sapiens) [5] = target: T1, Tubulin (Homo sapiens); assay: Inhibition of tubulin polymerization (unknown origin) at 30 uM incubated for 60 mins by microplate reader analysis; format: protein-complex assay
[6] = Cytotoxicity against human MCF-10A cells assessed as inhibition of cell proliferation incubated for 72 hrs by CCK8 assay; format: toxicity, cell-based
[7] = Toxicity in Balb/c nude mouse xenografted with human MCF7 cells assessed as body weight loss at 2 to 4 mg/kg, ip administered every other day for 20 days; format: organism-based; conditions: in vivo, 480 h, dose 2-4 mg/kg, time 20 day
[8] = target: T2, Estrogen receptor (Homo sapiens); assay: Induction of ERalpha degradation in human MCF7 cells at 5 uM incubated for 24 hrs by Western blot analysis; format: cell-based
[9] = Toxicity in Balb/c nude mouse xenografted with human MCF7 cells assessed as effect on liver morphology at 2 to 4 mg/kg, ip administered every other day for 20 days by H&E staining based analysis; format: organism-based; conditions: in vivo, 480 h, dose 2-4 mg/kg, time 20 day
[10] = Antiproliferative activity against human Tamoxifen-resistant LCC2 cells assessed as inhibition of cell proliferation incubated for 72 hrs by CCK8 assay; format: functional, cell-based
[11] = tested on: Estrogen receptor (Homo sapiens), P03372 [D538G]; assay: Induction of ERalpha degradation in human T47D cells harboring ERalpha D538G mutant at 0.5 to 5 uM incubated for 24 hrs by Western blot analysis; format: cell-based; conditions: dose 0.5-5 µM
[12] = Selectivity index, ratio of IC50 for cytotoxicity against human MCF-10A cells to IC50 for antiproliferative activity against human MCF7 cells; format: toxicity, cell-based; conditions: MCF-10A cells and MCF7 cells, read-out: Ratio IC50
[13] = target: T2, Estrogen receptor (Homo sapiens); assay: Induction of ERalpha degradation in human MCF7 cells at 5 uM incubated for 24 hrs in the presence of MG-132 by Western blot analysis; format: cell-based
T47D [14] = assay: Antiproliferative activity against human T47D cells harboring ERalpha D538G mutant assessed as inhibition of cell proliferation incubated for 72 hrs by CCK8 assay; format: functional, cell-based
Tubulin (Homo sapiens) [15] = target: T1, Tubulin (Homo sapiens); assay: Disruption of microtubule network in human LCC2 cells assessed as ruptured microtubule network at 4 uM incubated for 48 hrs by DAPI staining based confocal laser scanning microscopic analysis; format: cell-based
[16] = Antitumor activity against human Tamoxifen-resistant LCC2 cells xenografted in Balb/c nude mouse assessed as tumor growth inhibition at 2 mg/kg, ip administered every other day for 20 days relative to control; format: functional; conditions: Tamoxifen-resistant LCC2 cell, 480 h, time 20 day, read-out: TGI
[17] = target: Estrogen receptor beta (Homo sapiens) (UniProt Q92731); assay: Binding affinity to human ERbeta assessed as relative binding affinity incubated under vibration for 1 min followed by 2 hrs incubation under dark condition by fluorescence polarization assay relative to estradiol; conditions: time 121.0 min
MCF7 [18] = assay: Antiproliferative activity against ERalpha positive human MCF7 cells assessed as inhibition of cell proliferation incubated for 72 hrs by CCK8 assay; format: functional, cell-based; conditions: MCF7, 72 h
[19] = tested on: Estrogen receptor (Homo sapiens), P03372 [Y537S]; assay: Induction of ERalpha degradation in human T47D cells harboring ERalpha Y537S mutant at 0.5 to 5 uM incubated for 24 hrs by Western blot analysis; format: cell-based; conditions: dose 0.5-5 µM
MCF7 [20] = assay: Antitumor activity against human MCF7 cells xenografted in Balb/c nude mouse assessed as tumor growth inhibition at 4 mg/kg, ip administered every other day for 20 days relative to control; format: functional; conditions: MCF7, 480 h, time 20 day, read-out: TGI
T47D [21] = assay: Antiproliferative activity against human T47D cells harboring ERalpha Y537S mutant assessed as inhibition of cell proliferation incubated for 72 hrs by CCK8 assay; format: functional, cell-based
[22] = Toxicity in Balb/c nude mouse xenografted with human MCF7 cells assessed as effect on heart morphology at 2 to 4 mg/kg, ip administered every other day for 20 days by H&E staining based analysis; format: organism-based; conditions: in vivo, 480 h, dose 2-4 mg/kg, time 20 day
Tubulin (Homo sapiens) [23] = target: T1, Tubulin (Homo sapiens); assay: Disruption of microtubule network in human MCF7 cells assessed as chaotic microtubule network at 2 uM incubated for 48 hrs by DAPI staining based confocal laser scanning microscopic analysis; format: cell-based
[24] = tested on: Tamoxifen-resistant LCC2 cell; assay: Antitumor activity against human Tamoxifen-resistant LCC2 cells xenografted in Balb/c nude mouse assessed as reduction in Ki67 positive cells at 2 mg/kg, ip administered every other day for 20 days by immunohistochemistry analysis; format: functional, organism-based; conditions: time 20.0 day
LCC2 = assay: Induction of cell cycle arrest in human LCC2 cells assessed as accumulation of cells at G2/M phase incubated for 48 hrs by flow cytometry analysis; format: functional, cell-based; conditions: dose 6-24 µM
[25] = target: T2, Estrogen receptor (Homo sapiens); assay: Induction of ERalpha degradation in human MCF7 cells at 5 uM incubated for 24 hrs by Western blot analysis relative to SeCN-OBHSA derivatives; format: cell-based
MCF7 [26] = assay: Induction of cell cycle arrest in human MCF7 cells assessed as increase in G2/M phase cells at 0 to 8 uM incubated for 48 hrs by flow cytometry analysis (reference value: 20.10%); format: functional; conditions: dose 0-8 µM

Estrogen receptor (Homo sapiens), P03372 [D538G], sequence (P03372 whole entry D538G): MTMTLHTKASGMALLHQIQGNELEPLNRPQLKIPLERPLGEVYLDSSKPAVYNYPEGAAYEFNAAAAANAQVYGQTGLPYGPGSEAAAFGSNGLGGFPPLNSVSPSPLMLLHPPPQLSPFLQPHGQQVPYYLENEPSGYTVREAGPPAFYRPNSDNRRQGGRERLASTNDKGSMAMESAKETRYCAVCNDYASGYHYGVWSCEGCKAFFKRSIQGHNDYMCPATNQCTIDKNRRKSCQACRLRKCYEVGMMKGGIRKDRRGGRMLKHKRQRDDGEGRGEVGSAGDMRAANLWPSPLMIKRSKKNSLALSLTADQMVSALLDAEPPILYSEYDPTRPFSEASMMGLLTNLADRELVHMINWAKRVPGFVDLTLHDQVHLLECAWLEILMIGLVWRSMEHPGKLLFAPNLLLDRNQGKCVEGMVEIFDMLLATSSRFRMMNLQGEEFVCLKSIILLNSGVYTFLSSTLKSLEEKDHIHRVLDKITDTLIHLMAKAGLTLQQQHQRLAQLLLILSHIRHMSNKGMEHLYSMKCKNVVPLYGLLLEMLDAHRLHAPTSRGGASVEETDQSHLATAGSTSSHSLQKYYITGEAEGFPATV
Estrogen receptor (Homo sapiens), P03372 [Y537S], sequence (P03372 whole entry Y537S): as the sequence (P03372 whole entry D538G) above, with Y537S, G538D counted along it
Estrogen receptor beta (Homo sapiens), sequence (Q92731 whole entry): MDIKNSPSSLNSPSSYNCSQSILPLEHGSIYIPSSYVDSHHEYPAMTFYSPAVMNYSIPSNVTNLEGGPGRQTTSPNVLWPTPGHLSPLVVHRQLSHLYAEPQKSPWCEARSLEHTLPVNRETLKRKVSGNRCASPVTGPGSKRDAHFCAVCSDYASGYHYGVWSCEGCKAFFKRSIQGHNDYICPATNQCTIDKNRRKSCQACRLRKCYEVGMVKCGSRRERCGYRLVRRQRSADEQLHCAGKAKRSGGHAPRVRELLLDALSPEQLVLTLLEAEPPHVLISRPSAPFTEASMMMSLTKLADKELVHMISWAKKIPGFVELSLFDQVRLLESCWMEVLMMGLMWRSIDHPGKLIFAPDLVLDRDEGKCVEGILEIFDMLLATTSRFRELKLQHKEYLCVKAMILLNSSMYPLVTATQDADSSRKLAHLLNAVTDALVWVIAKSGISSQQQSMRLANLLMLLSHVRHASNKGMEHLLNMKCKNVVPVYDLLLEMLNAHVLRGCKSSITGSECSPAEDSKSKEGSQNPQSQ

Compound: N#C[Se]CCCCCC(=O)Nc1ccc(C2=C(c3ccc(O)cc3)C3CC(S(=O)(=O)N(CC(F)(F)F)c4ccccc4F)C2O3)cc1 (configuration not stated)
- Activity (Tubulin (Homo sapiens) [1]): Active
- Activity [2]: Non-Toxic
- Activity [3]: Dose-Dependent Effect
- Activity (MCF7 [4]): Active
- tubulin polymerization inhibition (active/not active) (Tubulin (Homo sapiens) [5]): Active
- IC50 at 72 h [6]: 15800 nM
- Activity [7]: Non-Toxic
- Activity [8]: Active
- Activity [9]: Non-Toxic
- IC50 [10]: 1590 nM
- Activity [11]: Active
- selectivity ratio [12]: 264
- Activity [13]: inactive
- IC50 (T47D [14]): 1670 nM
- Activity (Tubulin (Homo sapiens) [15]): Active
- inhibition in vivo at 2 mg/kg [16]: 51.4%
- RBA [17]: 0.1%
- IC50 (MCF7 [18]): 60 nM
- Activity [19]: Active
- inhibition in vivo at 4 mg/kg (MCF7 [20]): 77.7%
- IC50 (T47D [21]): 1370 nM
- Activity [22]: Non-Toxic
- Activity (Tubulin (Homo sapiens) [23]): Active
- Activity [24]: Active
- Activity (LCC2): Dose-Dependent Effect
- Activity [25]: Active
- Activity (MCF7 [26]): 40.88%
